In patent US9504660B2, “Retinaldehyde mimetics and inhibitors of retinaldehyde dehydrogenase I in the treatment of disorders” (THE BRIGHAM AND WOMEN'S HOSPITAL, INC., priority 2012, dated 2016):

Key:
[1] = test system: RXRa ligand binding domain (LBD); assay: Cell-free TR-FRET assay, PGC-1a recruitment to RXRa LBD; format: biochemical
[2] = test system: UCP-1; assay: UCP-1 gene expression in 10T1/2 cells during adipogenic differentiation; format: cell-based, murine; conditions: for effect on Rald-mediated UCP-1 expression: antagonist with Rald
Protocol: (§1) C3H10T1/2, isolated human stromal-vascular cells and Aldh1a1^−/− MEFs were cultured and differentiated as previously described^8. Briefly, cells were grown to confluence in DMEM, 10% fetal bovine serum (FBS) and 1% penicillin/streptomycin followed by standard adipogenic induction (20 nM insulin, 1 nM T3, 0.5 mM isobutylmethylxanthine, […], 0.125 mM indomethacin) and stimulation with retinoids, retinoid antagonists or vehicle (DMSO) as indicated. After a 48 h induction phase, growth media was supplemented with insulin, T3, and indicated retinoids which were changed every other day up to day 6.
(§2) Total RNA was extracted (RNeasy, Qiagen, Hi[den, Germany), DNase-treated (Qiagen), and reverse-transcribed to cDNA. Gene expression, normalized to 36B4, was analyzed by quantitative real-time RT-PCR (Sybr Green, 96 well plates) using a MyiQ cycler (Bio-Rad, Hercules, Calif.). Primer sequences are available upon request.

[3] = test system: retinoic acid response element (RARE) luciferase reporter; assay: RARE luciferase reporter in undifferentiated 10T1/2 cells; format: cell-based, murine; conditions: 24 h, concentration-dependent
Protocol: (§3) Cell lysates were harvested 48 h post transfection and luciferase activity quantified by standard luminometer assay and normalized to 3-galactosidase.

[4] = test system: RXR; assay: 9cisRA-induced Cyp26a1 expression in 10T1/2 cells; format: cell-based, murine; conditions: data not shown
Protocol: as §1, §2

[5] = test system: UCP-1; assay: UCP-1 gene expression in Aldh1a1-/- mouse embryonic fibroblast (MEF)-derived adipocytes; format: cell-based; conditions: stimulation 24 h, versus vehicle-treated cells
Protocol: (§4) Abdominal subcutaneous fat biopsies were obtained from a subject undergoing gastric bypass surgery who gave written informed consent. Fat biopsies were immediately washed with phosphate buffered saline (PBS), minced, and digested (1 mg/mi collagenase, 45 min, 37° C.) in DMEM containing 1% BSA. Digested tissues were filtered through sterile 150 µm nylon mesh and centrifuged (250 g, 5 min). The floating fractions containing adipocytes were discarded and they stromal-vascular fraction pellet was resuspended in erythrocyte lysis buffer (154 mM NH4CI, 10 mM KHCO3, 0.1 mM EDTA, 10 min) to remove red blood cells. The cells were further centrifuged at 500 g for 5 min, plated on a 24-well culture dish and grown, and differentiated to mature adipocytes as described below. MEFs were isolated from Aldh1a1^−/− embryos at embryonic day 14.5 using standard tech niques^43.
(§5) C3H10T1/2, isolated human stromal-vascular cells and Aldh1a1^−/− MEFs were cultured and differentiated as previously described^8. […]
(§6) Total RNA was extracted (RNeasy, Qiagen, Hi[den, Germany), DNase-treated (Qiagen), and reverse-transcribed to cDNA. Gene expression, normalized to 36B4, was analyzed by quantitative real-time RT-PCR (Sybr Green, 96 well plates) using a MyiQ cycler (Bio-Rad, Hercules, Calif.). […]

[6] = test system: UCP-1; assay: UCP-1 mRNA in shAldh1a1-transfected 10T1/2 cells; format: cell-based, murine; conditions: Rald stimulation (1 pM) in shAldh1a1-treated 10T1/2 cells
Protocol: as §1
Mission® shRNA constructs targeting Aldh1a1 and a non-targeting control shRNA were purchased from Sigma. To generate lentivirus particles, shRNA constructs were transfected into HEK293TN cells (SA Biosciences, Frederick, Md.) along with the packaging vectors psPAX and pM2DG. After 72 h, virus-containing supernatant was precipitated using polyethylene glycol (SA Biosciences) and concentrated in PBS (30×). […]
as §6

[7] = test system: 3T3-L1 cells; conditions: reference 16; cited from earlier work
[8] = target: T1, RARa ligand binding domain (LBD) (Homo sapiens, UniProt P10276); assay: Cell-free TR-FRET assay, PGC-1a recruitment to RARa LBD; format: biochemical
T1 construct: purchased Invitrogen
T1 sequence (P10276 183-417 limits assumed): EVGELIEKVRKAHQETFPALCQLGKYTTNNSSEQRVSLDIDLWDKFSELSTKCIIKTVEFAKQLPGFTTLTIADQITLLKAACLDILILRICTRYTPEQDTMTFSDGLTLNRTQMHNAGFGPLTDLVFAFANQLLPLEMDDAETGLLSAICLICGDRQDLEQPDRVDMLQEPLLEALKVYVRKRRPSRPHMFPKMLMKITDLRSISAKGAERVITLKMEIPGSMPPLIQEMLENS
Protocol: Lanthascreen” TR-FRET RARa and RXR13 coactivator assays (Invitrogen) were performed as per manufacturer protocol using a PerkinElmer (Waltham, Mass.) EnVision™ fluorescence plate reader.

[9] = test system: RAR; conditions: ligand displacement assays, reference 37; cited from earlier work
[10] = test system: UCP-1 promoter; assay: UCP-1 promoter luciferase reporter in undifferentiated 10T1/2 cells; format: cell-based, murine; conditions: 24 h, increasing concentrations / 1 pM
Protocol: as §3

[11] = test system: UCP-1; assay: UCP-1 expression in differentiating human stromal-vascular cells from subcutaneous fat biopsies; format: cell-based; conditions: 1 pM during differentiation
Protocol: as §4, §5, §6

[12] = test system: UCP-1 promoter region; assay: Chromatin immunoprecipitation (ChIP) at the UCP-1 promoter region in 10T1/2 cells; format: cell-based, mouse
Protocol: ChIP was performed in Rald versus vehicle stimulated C3H10T1/2 adipocytes using EZ-Magna ChIP™ kit following manufacturer's instructions (Millipore, Billerica, Mass.) and RARa, PGC-1a, or rabbit lgG antibodies as a negative control (all Santa Cruz). lmmunoprecipitated DNA was amplified by real-time PCR using primers specific for the mouse UCP-1 promoter region. Relative PGC-la and RARa occupancy at the UCP-1 promoter was determined normalized to input DNA

[13] = test system: UCP-1; assay: UCP-1 expression in fat depots of ASO-treated C57Bl/6J mice; format: in vivo; conditions: chow-fed mice, i.p. 35 mg/kg/dose twice a week for 6 weeks
Protocol: (§7) Aldh1a1-deficient (Aldh1a1^4″) mice were backcrossed to a C57BL/6J background (>20 generations). Mice were kept on a standard chow diet with a Vitamin A content of 15 IU/g or on high-fat diet (60% kcal fat, Research Diets, New Brunswick, N.J.) as indicated. Mice had free access to food and water except as indicated under Harvard Medical School Institutional Animal Care and Use Committee guidelines. Experiments were conducted using 12-14 week old female mice unless otherwise indicated.
(§8) An ASO targeting murine Aldh1a1 and a control ASO not hybridizing to any known murine RNA sequences were synthesized and purified by Isis Pharmaceuticals Inc. (Carlsbad, Calif.) as described previously^39. In vitro characterization including knockdown validation of the Aldh1a1 ASO was done in murine primary hepatocytes. ASOs (70 mg/kg/wk) were administered via intraperitoneal (i.p.) injection twice weekly.
as §6
Homogenized tissue was lysed in RIPA buffer (Boston Bioproducts, Ashland, Mass.) containing protease and phosphatase inhibitors. […] Proteins were detected by chemiluminescence (GE HealthCare Amersham, Amersham, UK).

[14] = Established diet-induced obesity in high-fat diet fed C57Bl/6J mice, body weight and fat depot mass; format: in vivo; conditions: HFD 8 weeks before treatment, continued HFD additional 9 weeks, compared to control ASO
Protocol: as §7, §8

[15] = Glucose and insulin tolerance tests in high-fat diet fed obese mice; format: in vivo; conditions: HFD obese mice, compared to control ASO
Protocol: as §8
Glucose (GTT) and insulin tolerance tests (ITT) were performed on mice after fasting (12 h and 6 h, respectively). Mice were injected i.p. either with D-glucose (Sigma, 0.75 g/kg body weight) or recombinant human regular insulin (0.5 U/kg body weight, Humulin R, Eli Lilly, Indianapolis, Ind.); blood glucose concentrations were measured periodically up to 120 min by glucometer (Abbott Laboratories, Abbott Park, Ill.).

[16] = test system: Aldh1a1; assay: Aldh1a1 expression in tissues of ASO-treated C57Bl/6J mice; format: in vivo
Protocol: as §7, §8, §2
Homogenized tissue was lysed in RIPA buffer (Boston Bioproducts, Ashland, Mass.) containing protease and phosphatase inhibitors. Standard Western blotting was performed using rabbit polyclonal antibody against UCP-1, rabbit monoclonal antibody against Aldh1a1 (both Abcam, Cambridge, UK), GAPDH and f3-Tubulin (both Santa Cruz Biotechnology). Proteins were detected by chemiluminescence (GE HealthCare Amersham, Amersham, UK).

[17] = Core body temperature under ambient and cold-induced conditions in ASO-treated mice; format: in vivo; conditions: versus Ctrl ASO-treated mice
Protocol: as §8
Core body temperature was assessed in mice as before^49,41. WT and Aldh1a1^−/− mice (12 week old, n=6/group) were anesthetized (Ketamine/Xylazine/Acepromazine, 100/10/3 mg/kg i.p.) and a telemetric temperature probe (E-mitter, MiniMitter, Bend, Oreg.) was implanted intra-abdominally. One week after surgery, mice were single-housed in open-circuit Oxymax chambers as part of the Comprehensive Lab Animal Monitoring System (CLAMS; Columbus Instruments, Columbus, Ohio)^42. Oxymax chambers were kept in a temperature enclosure with 12 h light/dark cycles at 23° C. and mice had ad-libitum access to food and water. After a 48 h acclimatization phase, core body temperature was recorded every 10 min for 48 h at ambient temperature (23° C.), followed by 48 h cold stimulation (4° C.). After sacrifice, fat depots were dissected and analyzed.

[18] = each 1 pM, differentiating 10T1/2 cells
[19] = 1 pM during adipogenic differentiation
[20] = chow-fed mice, i.p. 35 mg/kg/dose twice a week for 6 weeks, compared to Ctrl ASO

Compound: CC1=C(/C=C/C(C)=C\C=C\C(C)=C\C(=O)O)C(C)(C)CCC1 [9cisRA, reference compound]
- PGC-1a recruitment to RXRa [1]: potently recruited

Compound: Cc1ccc(C2=CCC(C)(C)c3ccc(C#Cc4ccc(C(=O)O)cc4)cc32)cc1 [AGN193109, reference compound]
- effect on Rald-mediated UCP-1 expression [2, 18]: completely inhibited

Compound: CC1=C(/C=C/C(C)=C/C=C/C(C)=C/C(=O)O)C(C)(C)CCC1 [ATRA, all-trans RA, reference compound]
- activity of a canonical RARE luciferase reporter [3]: significantly increased

Compound: CN1c2ccc([N+](=O)[O-])cc2N=C(c2ccc(C(=O)O)cc2)c2cc3c(cc21)C(C)(C)CCC3(C)C [HX531, reference compound]
- 9cisRA-induced expression of the RA target gene Cyp26a1 [4]: significantly inhibit
- effect on Rald-mediated UCP-1 expression [2, 18]: did not alter

Compound: CC1=C(/C=C/C(C)=C/C=C/C(C)=C/C=O)C(C)(C)CCC1 [Rald, all trans-Retinal]
- UCP-1 gene expression increase [5]: 40 fold
- UCP-1 mRNA expression increase [6]: 100 fold
- PGC-1a recruitment to RXRa [1]: virtually no effect
- adipogenesis in 3T3-L1 cells [7]: inhibitor
- expression of other BAT markers including PGC-16, PRDM16, and Cidea [2, 19]: induced
- expression of the adipogenic gene aP2 [2, 19]: remained unaltered
- UCP-1 expression induction ([2]; 1 pM during adipogenic differentiation of 10T1/2 cells (white adipocytes)): 100 fold
- UCP-1 expression ([2]; co-stimulation with the Aldh inhibitor DEAB, each 1 pM, differentiating 10T1/2 cells): to the same extent as Rald alone
- EC50 [8]: 82 nM
- PGC-1a recruitment to RARa [8]: effectively recruited
- binding to RAR [9]: can bind
- UCP-1 promoter luciferase activity [10]: increased
- activity of a canonical RARE luciferase reporter [3]: significantly increased
- UCP-1 expression [11]: significantly increased
- PGC-1a occupancy at the UCP-1 promoter region, enrichment ([12]; Rald 1 pM during adipocyte differentiation): 5 fold
- RARa signal at the UCP-1 promoter ([12]; after stimulation, versus basal conditions): did not increase further

Compound: CC1=C(/C=C/C(C)=C/C=C/C(C)=C/CO)C(C)(C)CCC1 [retinol]
- binding to RAR [9]: can bind
- UCP-1 promoter luciferase activity [10]: not and failed to induce

Compound: Aldh1a1 ASO: ASO targeting murine Aldh1a1, synthesized by Isis Pharmaceuticals; sequence AACACGACTATGCTGGTTAC (SEQ ID NO: 01) (listed as DNA, chemistry not given here)
- UCP-1 expression in GWAT [13]: significantly increased
- UCP-1 expression in SWAT or BAT (significant increase) [13]: not
- GWAT mass [14]: decreased
- weight gain in obese mice [14]: significantly limited
- glucose tolerance [15]: improved
- insulin tolerance [15]: improved
- Aldh1a1 expression in subcutaneous WAT ([16]; administered systemically): no effect
- Aldh1a1 expression in visceral WAT ([16]; administered systemically): decrease
- Aldh1a1 expression in SWAT, BAT, spleen, intestine, and skeletal muscle [16, 20]: remained unchanged
- Aldh1a1 mRNA and protein levels in liver and GWAT [16, 20]: significantly decreased
- core body temperature on cold exposure ([17]; 4° C., 48 h): protected significantly
- core body temperature at ambient temperature ([17]; 23° C.): did not differ
